pIC50: −log10 of the molar value. Where two headings read alike, the source gives them in different places. *1 amine or outer side, *2 acyl side, *3 side chain or, on linkers, in order; H or OH if unused. Where a SMILES comes first, the peptide text is derived from it. Bridges are numbered along the chain shown (N, C = ends). Primed or numbered codes have the meaning given here. [ ]: non-standard residue; d: D form. The star is where a group is joined. T1 = linker NH2CH2CH2N(SO2Me)CH2COOH, CS(=O)(=O)N(CCN[*:1])CC(=O)[*:2]; T1″ = NH2CH2CH2N(SO2Me)CH2COOH, CS(=O)(=O)N(CCN[*:1])CC(=O)[*:2]; dProlinol(O-CH2CO) = O=C(COC[C@H]1CCCN1[*:1])[*:2]; N(2-Aminoethyl)Gly = O=C(CN(CCN[*:3])[*:1])[*:2]; T3 = linker N(CH2)3CHCH2OCH2COOH; Nle = CCCC[C@H](N)C(=O)O; Ms = CS(=O)(=O)*; Sar = CNCC(=O)O
Tested on: H929 myeloma cells
Format: cell-based, human
Conditions: for bioactivity relative to parent/comparator peptide: SAR statements; for activity relative to linear D-HYD1 (words): TOPRO 3
Method: H929 cells were treated for 24 hours with varying concentrations of peptide. Cell death was measured by Topro-3 staining and FACS analysis. The IC50 values were obtained from linear regression analysis and an average value was obtained from 3 independent experiments.
Table 4 legend: Structure activity relationship in H929 myeloma cells of cyclic INTEGRIN INTERACTION INHIBITORS derivatives. The minimal bioactive core sequence of INTEGRIN INTERACTION INHIBITORS WSVVM (SEQ ID NO:33) was cyclized using 2 novel reduced amide bond beta turn promoters and KLKLK (SEQ ID NO:34) as the non-recognition sequence. H929 cells were treated with varying concentrations of the indicated peptide for 24 h. Cell viability was determined using Topro-3 staining and FACS analysis after drug treatment. IC50 values were generated from linear regressions generated from the dose response curves (n=mean of 3 independent experiments).
A colony forming assay was used to compare induced cell death in H929 multiple myeloma cells. Cells were treated with integrin interaction inhibitors, shown in FIG. 5 and Table 4, and cell death was measured following 24 hour peptide treatment by TOPRO-3 staining and FACS analysis.

[1] = H929 myeloma cells, 24 h treatment, Topro-3 staining and FACS, mean of at least 3 independent experiments, read-out: IC50
[2] = Table 8, cyclic III peptide analogs, H929 cells, read-out: IC50

Compound	pIC50 [1]	pIC50 [2]	bioactivity relative to parent/comparator peptide (H929 cells)	other results
CCCC[C@@H]1NC(=O)[C@H](C(C)C)NC(=O)[C@H](C(C)C)NC(=O)[C@H](C)NC(=O)[C@H](Cc2c[nH]c3ccccc23)NC(=O)COC[C@H]2CCCN2C(=O)[C@H](CCCCN)NC(=O)CN(C)C(=O)[C@H](CCCCN)NC(=O)CN(C)C(=O)[C@H](CCCCN)NC(=O)COC[C@H]2CCCN2C1=O [Peptide 23, KXKXKT3WAVVN*T3] (cyclo(K[Sar]K[Sar]K[dProlinol(O-CH2CO)]WAVV[Nle][dProlinol(O-CH2CO)]))			poor bioactivity	pIC50 (24 h): < 3.82
CCCC[C@@H]1NC(=O)CN(S(C)(=O)=O)CCNC(=O)[C@H](CCCCN)NC(=O)[C@H](CC(C)C)NC(=O)[C@H](CCCCN)NC(=O)[C@H](CC(C)C)NC(=O)[C@H](CCC(N)=O)NC(=O)COC[C@H]2CCCN2C(=O)[C@H](Cc2c[nH]c3ccccc23)NC(=O)[C@H](C)NC(=O)[C@H](C(C)C)NC(=O)[C@H](C(C)C)NC1=O [Peptide 18, QLKLKT1N*VVAWT3] (Ms-[N(2-Aminoethyl)Gly][Nle]VVAW[dProlinol(O-CH2CO)]QLKLK; lactam 1-C)				pIC50 (24 h): 4.72
KLKQKT1N*VVAWT3 [17] (cyclo(KLKQK[T1][Nle]VVAW[T3])) [Peptide 17]	4.60	4.89		
CCCC[C@@H]1NC(=O)CN(S(C)(=O)=O)CCNC(=O)[C@H](CCCCN)NC(=O)[C@H](CC(C)C)NC(=O)[C@H](CCCCN)NC(=O)[C@H](CC(C)C)NC(=O)[C@H](CCCCN)NC(=O)COC[C@H]2CCCN2C(=O)[C@H](Cc2c[nH]c3ccccc23)NC(=O)[C@H](C)NC(=O)[C@H](Cc2ccccc2)NC(=O)[C@H](C(C)C)NC1=O [Peptide 26, KLKLKT1N*VFAWT3] (Ms-[N(2-Aminoethyl)Gly][Nle]VFAW[dProlinol(O-CH2CO)]KLKLK; lactam 1-C)		5.05		
CSCC[C@@H]1NC(=O)CN(S(C)(=O)=O)CCNC(=O)[C@H](CCCCN)NC(=O)[C@H](CC(C)C)NC(=O)[C@H](CCCCN)NC(=O)[C@H](CC(C)C)NC(=O)[C@H](CCCCN)NC(=O)CN(S(C)(=O)=O)CCNC(=O)[C@H](C)NC(=O)[C@H](CO)NC(=O)[C@H](C(C)C)NC(=O)[C@H](C(C)C)NC1=O [Peptide 3, KLKLKT1MVVSAT1]			decrease in activity	
CSCC[C@H]1NC(=O)CN(S(C)(=O)=O)CCNC(=O)[C@@H](CCCCN)NC(=O)[C@@H](CC(C)C)NC(=O)[C@@H](CCCCN)NC(=O)[C@@H](CC(C)C)NC(=O)[C@@H](CCCCN)NC(=O)CN(S(C)(=O)=O)CCNC(=O)[C@@H](Cc2c[nH]c3ccccc23)NC(=O)[C@@H](CO)NC(=O)[C@@H](C(C)C)NC(=O)[C@@H](C(C)C)NC1=O [cyclic D-HYD1]				pIC50 (24 h): 4.52; activity relative to linear D-HYD1 (words) (H929 cells): twice as active as linear D-HYD1; activity relative to linear D-HYD1 (words) (H929 cells, listed as c-D-HYD1): about twice as active as linear D-HYD1
CC(C)C[C@@H]1NC(=O)[C@H](CCCCN)NC(=O)CN(S(C)(=O)=O)CCNC(=O)[C@H](Cc2c[nH]c3ccccc23)NC(=O)[C@H](CO)NC(=O)[C@H](C(C)C)NC(=O)[C@H](C(C)C)NC(=O)[C@H](C)NC(=O)CN(S(C)(=O)=O)CCNC(=O)[C@H](CCCCN)NC(=O)[C@H](CC(C)C)NC(=O)[C@H](CCCCN)NC1=O [Peptide 7, KLKLKT1AVVSWT1]			decrease in activity	
CSCC[C@@H]1NC(=O)CN(S(C)(=O)=O)CCNC(=O)[C@H](CCCCN)NC(=O)[C@H](CC(C)C)NC(=O)[C@H](CCCCN)NC(=O)[C@H](CC(C)C)NC(=O)[C@H](CCCCN)NC(=O)CN(S(C)(=O)=O)CCNC(=O)[C@H](Cc2c[nH]c3ccccc23)NC(=O)[C@H](CO)NC(=O)[C@H](C(C)C)NC(=O)[C@H](C)NC1=O [Peptide 6, KLKLKT1MAVSWT1]			increase in activity	
CCCC[C@@H]1NC(=O)[C@H](C(C)C)NC(=O)[C@H](C(C)C)NC(=O)[C@H](C)NC(=O)[C@H](Cc2c[nH]c3ccccc23)NC(=O)COC[C@H]2CCCN2C(=O)[C@H](CCCCN)NC(=O)[C@H](CC(C)C)NC(=O)[C@H](CCCCN)NC(=O)[C@H](CC(C)C)NC(=O)[C@H](CCCCN)NC(=O)COC[C@H]2CCCN2C1=O [Peptide 22, KLKLKT3WAVVN*T3] (cyclo(KLKLK[dProlinol(O-CH2CO)]WAVV[Nle][dProlinol(O-CH2CO)]))				pIC50 (24 h): 4.77
CSCC[C@@H]1NC(=O)CN(S(C)(=O)=O)CCNC(=O)[C@H](CCCCN)NC(=O)[C@H](CC(C)C)NC(=O)[C@H](CCCCN)NC(=O)[C@H](CC(C)C)NC(=O)[C@H](CCCCN)NC(=O)CN(S(C)(=O)=O)CCNC(=O)[C@H](Cc2c[nH]c3ccccc23)NC(=O)[C@H](CO)NC(=O)[C@H](C(C)C)NC(=O)[C@H](C(C)C)NC1=O [Peptide 2, KLKLKT1MVVSWT1]				fold more potent compared to the cyclic D-HYD1 variant (H929 cells): 2 fold; fold more potent than linear HYD1 (H929 cells, reference of the 10- and 15-fold statements not expressly named): 2.5 fold

More lines, main results first:

pIC50 [1]	pIC50 [2]	Compound	bioactivity relative to parent/comparator peptide (H929 cells)	other results
5.00	4.16	KLKLKT1WAVVAT1 (cyclo(KLKLK[T1]WAVVA[T1])) [Peptide 12]		
4.92	4.72	KLKLQT1N*VVAWT3 (cyclo(KLKLQ[T1][Nle]VVAW[T3])) [Peptide 19]		
6.00	5.22	KLKLKT1WSVVMT1 (cyclo(KLKLK[T1]WSVVM[T1])) [Peptide 10]	increases in activity relative to the inverso peptide	pIC50 (Table 4, H929 myeloma cells, 24 h, Topro-3 staining and FACS, mean of 3 independent experiments, read-out: IC50): 5.17; pIC50 (Table 5, H929 multiple myeloma cells, 24 hour peptide treatment, mean and standard deviation of three independent experiments, read-out: IC50): 5.23
4.82	4.74	KQKLKT1N*VVAWT3 (cyclo(KQKLK[T1][Nle]VVAW[T3])) [Peptide 20]		
5.05	4.59	KLKLKT1WAVAN*T1 (cyclo(KLKLK[T1]WAVAL[T1]); not fully specified (residue 11); printed as KLKLKT1WAVAN*T1) [Peptide 13]		
4.74	5.52	KLKLKT1AAVVN*T1 (cyclo(KLKLK[T1″]AAVV[Nle][T1″])) [Peptide 15]	unexpected improvement in bioactivity	

— patent US20150071918A1, “PEPTIDES FOR THE TREATMENT OF CANCER” (H. LEE MOFFITT CANCER CENTER AND RESEARCH INSTITUTE, INC., priority 2012, published 2015)
